These are literature values, as cited in publication PMC4168267 (Scientific Reports, 2014).

The subject of one data set is chymotrypsin. As to the kind of experiment: chymotrypsin.
For another data set, the target named is Gαi1-GDP (Homo sapiens, UniProt P63096). The following applies: R6A reference peptide of the competition assay.
Chain of Gαi1-GDP (P63096 whole entry): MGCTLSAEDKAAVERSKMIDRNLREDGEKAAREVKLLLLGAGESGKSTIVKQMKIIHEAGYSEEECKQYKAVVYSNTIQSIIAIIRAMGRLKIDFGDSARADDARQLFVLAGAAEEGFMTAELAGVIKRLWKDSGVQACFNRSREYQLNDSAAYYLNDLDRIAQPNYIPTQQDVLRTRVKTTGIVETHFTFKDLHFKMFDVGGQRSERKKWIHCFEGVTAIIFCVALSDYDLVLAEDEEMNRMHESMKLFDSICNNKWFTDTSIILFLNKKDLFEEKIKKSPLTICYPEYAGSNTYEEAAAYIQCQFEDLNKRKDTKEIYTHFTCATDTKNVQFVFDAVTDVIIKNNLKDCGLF

For the sequence MITWYEFVAGTK, in the data set on chymotrypsin, the cleaved bond entry was “Y5-E, major” and the not cleaved entry is “intact”. What is called Kd is the equilibrium constant for the complex coming apart. Regarding MSQTKRLDDQLYWWEYL [Peptide R6A], at Gαi1-GDP, the dissociation constant (Kd) was 0.06 µM.
